# From patent US20260041640A1 (INCYCLIX BIO, LLC, priority 2023, published 2026)
# Where “and” joins values, the source holds several entries; their conditions need not be identical. Equal values may be shown once. Read-outs that look alike come from different tables or passages of the source.
# Assay: First-in-human clinical study: plasma and whole blood PK of INX-315 (oral QD, ASD tablet)
# Assay type: in vivo
# Parameters: AUC Plasma / AUC Whole Blood: unit not given here
# Source text: All INX-315 tablets were taken at approximately the same time(s) each day.
# Samples will also be collected pre-dose on Cycle 1 Days 2, 8, 16, and Day 22, and pre-dose on Day 1 of each subsequent cycle.
# Standard non-compartmental PK parameters were estimated.
# Geometric mean and geometric CV % will be included in the summary statistics.
# PK parameters will be summarized descriptively by dosing cohort. AUC and Cmax values will also be presented in scatter plots. Dose proportionality will be assessed for AUC and Cmax using a power model. The 90% CI of the slope for each PK parameter will be estimated from the model and presented in a summary table.
# Cohort 1 enrollment of 6 subjects dosed at 100 mg oral QD was completed in October of 2023.
# Patients were upgraded to the 200 mg QD dose level and PK/PD plasma parameters were measured (FIG. 18A).
# Patients were administered the 200 mg QD and 300 mg QD dose levels and PK/PD plasma parameters were measured.
# [1] = Cohort 1 (100 mg QD), Day 1, individual subjects
# [2] = Cohort 1 (100 mg QD), Day 15, individual subjects
# [3] = Cohort 2 (200 mg QD), Day 1, individual subjects
# [4] = Cohort 2 (200 mg QD), Day 15, individual subjects
# [5] = Cohort 3 (300 mg QD), Day 1, individual subjects
smiles,measurement,setting,value
NS(=O)(=O)c1ccc(Nc2ncc3cc4n(c3n2)C2(CCCCC2)C(=O)NN4)cc1 [INX-315],Mean free plasma trough concentration,"100 mg QD, C 1 D 1 (Day 1)",2.98 (6) ng/mL and 2.98 ng/mL
same,Mean free plasma trough concentration,"100 mg QD, C 1 D 7 (Day 7)",5.7 (6) ng/mL and 5.71 ng/mL
same,Mean free plasma trough concentration,"100 mg QD, C 1 D 14",4.72 ng/mL
same,Mean free plasma trough concentration,"100 mg QD, C 1 D 15",5.43 ng/mL
same,Mean free plasma trough concentration,"100 mg QD, C 1 D 21",4.72 ng/mL
same,Mean free plasma trough concentration,"100 mg QD, C 2 D 1",4.32 ng/mL
same,Mean free plasma trough concentration,"100 mg QD, C 3 D 1",4.27 ng/mL
same,Mean free plasma trough concentration,"100 mg QD, C 4 D 1",5.91 ng/mL
same,Mean free plasma trough concentration,"200 mg QD, C 1 D 1 (Day 1)",7.3 (2) ng/mL and 7.31 ng/mL
same,Mean free plasma trough concentration,"200 mg QD, C 1 D 7 (Day 7)",10.2 (2) ng/mL and 10.16 ng/mL
same,AUC Plasma,[1],2532 and 1886 and 3391 and 2271 and 3370 and 640.8
same,AUC Whole Blood,[1],44857 and 38499 and 41732 and 33139 and 60740 and 13440
same,AUC Plasma,[2],1276 and 5858 and 3444 and 6910 and 1951
same,AUC Whole Blood,[2],37642 and 44316 and 118285 and 31754
same,time to steady state trough concentrations,"Cohort 1, 100 mg QD",≤ 7 days
same,AUC Plasma,[3],4955 and 7528 and 11982 and 19801
same,AUC Whole Blood,[3],132257 and 94340 and 131625
same,AUC Plasma,[4],6987 and 6286 and 18669 and 13618
same,AUC Whole Blood,[4],94895 and 236613 and 183345 and 112733
same,AUC Plasma,[5],12111 and 11382 and 8338 and 11173
same,AUC Whole Blood,[5],149733 and 88350 and 116734 and 106858
same,half-life,"human, plasma and whole blood, oral, 100 mg, preliminary data of the expanded cohort 1, 100 mg QD, read-out: t1/2 (converted)",≥ 12 h
same,concentration at 0.5 h,"human, plasma, oral, 100 mg, 100 mg QD (n = 6), 0.5 hr",18.9 ng/mL
same,concentration at 1 h,"human, plasma, oral, 100 mg, 100 mg QD (n = 6), 1.0 hr",71.4 ng/mL
same,concentration at 2 h,"human, plasma, oral, 100 mg, 100 mg QD (n = 6), 2.0 hr",158 ng/mL
same,concentration at 6 h,"human, plasma, oral, 100 mg, 100 mg QD (n = 6), 6.0 hr",132 ng/mL
same,concentration at 8 h,"human, plasma, oral, 100 mg, 100 mg QD (n = 6), 8.0 hr",121 ng/mL
same,concentration at 24 h,"human, plasma, oral, 100 mg, 100 mg QD (n = 6), […], read-out: Mean plasma concentration",57.4 ng/mL
same,AUC,"human, plasma, oral, 100 mg, plasma, 100 mg QD (n = 6), read-out: Total Area (AUC)",2400 ng·h/mL
same,Cmax,"human, plasma, oral, 100 mg, plasma, 100 mg QD, Day 1 (Example 10), read-out: Cmax",148 ng/mL
same,AUC(0-t),"human, plasma, oral, 100 mg, plasma, 100 mg QD, Day 1, Cohort 1 (Table 27), read-out: AUClast, geometric mean",2640 ng·h/mL
same,Cmax,"human, plasma, oral, 100 mg, plasma, 100 mg QD, Day 1, Cohort 1 (Table 27), read-out: Cmax, geometric mean",193 ng/mL
same,Tmax,"human, plasma, oral, 100 mg, plasma, 100 mg QD, Day 1, Cohort 1 (Table 27), read-out: Tmax, median",2 h
same,half-life,"human, plasma, oral, 100 mg, plasma, 100 mg QD, Day 1, Cohort 1 (Table 27), read-out: t1/2, geometric mean (converted)",12.6 h
same,AUC,"human, plasma, oral, 100 mg, plasma, 100 mg QD, Day 1, average of five human patients (Example 10), read-out: AUC",2020 ng·h/mL
same,AUC(0-t),"human, plasma, oral, 100 mg, plasma, 100 mg QD, Day 1, individual patients, read-out: AUClast",3490 ng·h/mL
same,half-life,"human, plasma, oral, 100 mg, plasma, 100 mg QD, Day 1, individual patients, read-out: t1/2 (converted)",15.1 h
same,AUC,"human, plasma, oral, 100 mg, plasma, 100 mg QD, Day 1 observed, mean of first two patients, read-out: AUC",3450 ng·h/mL
same,Cmax,"human, plasma, oral, 100 mg, plasma, 100 mg QD, Day 1 observed, mean of first two patients, read-out: Cmax",196 ng/mL
same,concentration at 1 day,"human, plasma, oral, 100 mg, plasma, 100 mg QD, Day 1 observed, mean of first two patients, read-out: Cmin",103 ng/mL
same,concentration at 1 day,"human, plasma, oral, 100 mg, plasma, 100 mg QD, Day 1 observed, mean of first two patients, read-out: Cmin^free",5.4 ng/mL
same,AUC,"human, plasma, oral, 100 mg, plasma, 100 mg QD, Day 15 (Example 10), read-out: AUC",3290 ng·h/mL
same,Cmax,"human, plasma, oral, 100 mg, plasma, 100 mg QD, Day 15 (Example 10), read-out: Cmax",211 ng/mL
same,AUC(0-t),"human, plasma, oral, 100 mg, plasma, 100 mg QD, Day 15, individual patients, read-out: AUClast",7240 ng·h/mL
same,Cmax,"human, plasma, oral, 100 mg, plasma, 100 mg QD, Day 15, individual patients, read-out: Cmax",457 ng/mL
same,half-life,"human, plasma, oral, 100 mg, plasma, 100 mg QD, Day 15, individual patients, read-out: t1/2 (converted)",17 h
same,AUC,"human, plasma, oral, 100 mg, plasma, 100 mg QD, Day 15 observed, mean of first two patients, read-out: AUC",6580 ng·h/mL
same,Cmax,"human, plasma, oral, 100 mg, plasma, 100 mg QD, Day 15 observed, mean of first two patients, read-out: Cmax",408 ng/mL
same,concentration at 15 day,"human, plasma, oral, 100 mg, plasma, 100 mg QD, Day 15 observed, mean of first two patients, read-out: Cmin",177 ng/mL
